Experimental data as given in patent US12551480B2, “Treatment using EYP001” (ENYO PHARMA, priority 2019, dated 2026).

What was measured:
[1] = clinical trials of obeticholic acid (PBC, NASH); cited from earlier work
[2] = human, in vivo
[3] = Study EYP001-202 Phase 2a in NASH patients: pruritus intensity on Visual Analog Scale, safety and tolerance; type: in vivo, human
Experimental: Values are AUC least square means (error bars=SE). AUC=area under the concentration-time curve; BID=twice daily; QD=once daily. * p<0.05 versus Placebo.
(§1) EYP001a is an investigational agonist of the FXR, a key regulator of bile, lipid, and glucose metabolism. […] Study EYP001-202 is a Phase 2a, 2-part study conducted to determine the efficacy and safety profiles of different doses and dosing regimens of EYP001 (100 mg twice daily [BID] and 200 mg once daily [QD]) versus placebo on LFC (liver fat content) from baseline to Week 12 in patients with NASH. An interim analysis on 24 patients enrolled in Part A Safety Run-in Cohort focused on safety, tolerance and key efficacy results.
VAS (Visual Analog Score) results were the followings: 100 mg BID group (mean change from baseline ranged from 3.34 on Day 7 to 6.84 on Day 21), and the 200 mg QD group (mean change from baseline ranged from 3.03 on Day 28 to 3.47 on Day 56).
The efficacy was shown with a significant, clinically relevant LFC reduction from baseline. However, tolerance was affected due to pruritus events causing premature terminations. The BID regimen less well tolerated compared to QD regimen. In addition, a higher efficacy is associated to the QD regimen in comparison to the BID.

[4] = Study EYP001-202 Phase 2a in NASH patients: liver fat content (LFC) change from baseline to Week 12 by MRI-PDFF; type: in vivo, human
Experimental: FIG. 2: Absolute Liver Fat Content Change (%) from baseline assessed by MRI-PDFF in NASH patients treated during 12 weeks with EYP001 100 mg BID (n=4) or EYP001 200 mg QD (n=3) or Placebo (n=5). Values expressed as means; error bar is SE. #p=0.07 vs baseline. The ------- line corresponds to a 5% clinical meaningful reduction. Analysis of covariance (ANCOVA) model with change from baseline as the dependent variable and baseline Liver Fat Content as a covariate and treatment (pooled EYP001 and Placebo BID) and stratification factors—statin use and T2DM status at screening as factors.
as §1
The primary efficacy endpoint of LFC reduction was met.

NASH rodent model = type: in vivo
HBV (plasma HBsAg) = test: Plasma HBsAg change from baseline in patients with chronic Hepatitis B infection, 4 weeks; type: in vivo, human; conditions: 400 mg QD vs 200 mg BID, chronic Hepatitis B patients (FIG. 3)
Experimental: FIG. 3: Plasma HBsAg (Log 10 IU/mL) change from baseline in patients with chronic Hepatitis B infection. Patients received during 4 weeks either Placebo (n=8), EYP001 200 mg BID (n=8) or EYP001 400 mg QD (n=8). Values expressed as mean; error bar is SD. * p<0.05 vs baseline.
Patients chronically infected with HBV underwent a 4-week treatment as either daily oral FXR agonist EYP001 monotherapy or placebo or entecavir (ETV) in Part A of the study (n=48) or in combination with IFN (Part B, n=23, weekly sub-cutaneous injections of pegylated IFNα2a, PEG-IFN). Overall 15 (30%) patients developed pruritus related to EYP001, a well-known TEAE with FXR agonist, the mechanism of which however is poorly understood.

Row | Structure (SMILES) | pruritus rates [1] | frequency of pruritus with QD dosing compared to BID regimens [2] | any of above Pruritus related MEDRA (% of patients) ([2]; 4 weeks) | n = any of above Pruritus related MEDRA (number of patients) ([2]; 4 weeks) | none of above (% of patients without pruritus) ([2]; 4 weeks) | none of above (number of patients without pruritus) ([2]; 4 weeks) | patients who developed pruritus related to EYP001 (%) ([2]; 4 weeks) | patients who developed pruritus related to EYP001 (number) ([2]; 4 weeks) | tolerance in VAS analysis (AUC over 12 weeks) ([3]; NASH patients, 200 mg QD vs 100 mg BID (FIG. 1)) | serious AEs ([3]; male and female F2-F3 NASH patients, 100 mg BID and 200 mg QD) | LFC reduction, regimens compared ([4]; 200 mg QD group compared to 100 mg BID group, 12 weeks (FIG. 2)) | LFC reduction, difference from placebo ([4]; EYP001 groups pooled (100 mg BID and 200 mg QD), baseline to Week 12, p=0.04, absolute LFC change (%) by MRI-PDFF) | effect on liver steatosis, inflammation, apoptosis and fibrosis (NASH rodent model) | plasma HBsAg change from baseline, efficacy of regimens compared (HBV (plasma HBsAg))
1 | CC[C@H]1[C@@H](O)[C@@H]2[C@H](CC[C@]3(C)[C@@H]([C@H](C)CCC(=O)O)CC[C@@H]23)[C@@]2(C)CC[C@@H](O)C[C@@H]12 [obeticholic acid] | up to 51% | – | – | – | – | – | – | – | – | – | – | – | – | –
2 | O=C(O)c1cc2c(Cl)c(N3CCN(S(=O)(=O)c4c(Cl)cccc4Cl)CC3)ccc2o1 [EYP001] | – | up to four times less frequent pruritus | 27% | 9 | 73% | 24 | 30% | 15 | better tolerance | no serious AEs | more pronounced effect | 8.62 | reduced liver steatosis, inflammation, apoptosis, and fibrosis | better efficacy
